From patent US9801901B2, “Alginate oligomers for use in overcoming multidrug resistance in bacteria” (priority 2009, dated 2017)
Values after ≈ are worked out from the molar mass of the structure shown. Read-outs that look alike come from different tables or passages of the source. Marks after values point to notes of the source that are not given here.

Legend:
[1] = test system: Pseudomonas aeruginosa CFA 24-1, clinical mucoid strain (R80); experiment: MIC assay, CAMHB with alginate oligomer, no visible growth; format: cell-based; settings: Pseudomonas aeruginosa, Table 1, R80, read-out: MIC
[2] = test system: Acinetobacter lwoffii (6056, V22); experiment: MIC-assay, Mueller-Hinton broth with G-block alginate, 384-well, OD600
Streptococcus oralis = experiment: MIC-assay, Mueller-Hinton broth with G-block alginate, 384-well, OD600 (Table 12); format: cell-based; settings: Streptococcus oralis (5610, V17) MDR, read-out: MIC
Source text: (§1) Minimum inhibitory concentration (MICs) of different antibiotics for strains of Streptococcus oralis and Staphylococcus aureus (MRSA) displaying MDR phenotypes in the presence of varying concentrations of OligoCF-5/20 (0-10%). (MIC values are expressed in μg ml^−1).

[3] = test system: Staphylococcus aureus (MRSA) U50; experiment: as above; format: cell-based; settings: MRSA 1040s, U50 MDR, read-out: MIC
Source text: as §1

[4] = test system: V10 (Egypt) Acinetobacter lwoffii; experiment: MIC assay, CAMHB with alginate oligomer, no visible growth; format: cell-based; settings: Table 5, V10 MDR Acin. lwoff
[5] = test system: Acinetobacter lwoffii (Egypt, V10); experiment: MIC-assay, Mueller-Hinton broth with G-block alginate, 384-well, OD600
[6] = test system: Burkholderia cepacia (1322, V23); experiment: as above
[7] = test system: Pseudomonas aeruginosa (MDR 301, PSA, V2); experiment: as above; settings: Pseudomonas aeruginosa, Table 8, V2
[8] = test system: strains of Klebsiella pneumoniae displaying MDR phenotypes; experiment: MIC-assay, Mueller-Hinton broth with G-block alginate, 384-well, OD600 (Table 10); format: cell-based; settings: read-out: MIC
Source text: Minimum inhibitory concentration (MICs) of different antibiotics for strains of Klebsiella pneumoniae displaying MDR phenotypes in the presence of varying concentrations of OligoCF-5/20 (0-10%). (MIC values are expressed in μg ml^−1).

[9] = test system: PA01 Pseudomonas aeruginosa ATCC 15692; experiment: MIC assay, two-fold antibiotic dilutions in CAMHB with alginate oligomer, no visible growth; format: cell-based; settings: Pseudomonas aeruginosa, ATCC15692, Table 1, PA01, read-out: MIC
[10] = test system: Burkholderia cepacia (LMG18941, ATCC-BAA-246); experiment: MIC-assay, Mueller-Hinton broth with G-block alginate, 384-well, OD600
[11] = test system: Acinetobacter baumannii (Egypt, V9); experiment: as above
[12] = test system: Pseudomonas aeruginosa (R22, PSA, V1); experiment: as above
[13] = test system: Acinetobacter baumannii (MDR ACB, Libya, V4); experiment: as above
[14] = test system: V12 5725 (Wales) Klebsiella pneumoniae; experiment: MIC assay, CAMHB with alginate oligomer, no visible growth; format: cell-based; settings: Table 5, V12 MDR Kleb pneu
[15] = test system: Pseudomonas aeruginosa ATCC 39324, mucoid type strain (R79); experiment: as above; format: cell-based; settings: Pseudomonas aeruginosa, ATCC39324, Table 1, R79, read-out: MIC
[16] = Table 9, G-block (OligoCF-5/20) 0%
[17] = Table 9, G-block (OligoCF-5/20) 2%
[18] = Table 9, G-block (OligoCF-5/20) 6%
[19] = Table 9, G-block (OligoCF-5/20) 10%
[20] = Table 8, G-block (OligoCF-5/20) 0%
[21] = Table 8, G-block (OligoCF-5/20) 2%
[22] = Table 8, G-block (OligoCF-5/20) 6%
[23] = Table 8, G-block (OligoCF-5/20) 10%

With `CN(C)[C@@H]1C(O)=C(C(N)=O)C(=O)[C@@]2(O)C(O)=C3C(=O)c4c(O)cccc4[C@@](C)(O)[C@H]3[C@H](O)[C@@H]12` [Oxytetracycline] the MIC ([1]; OligoCF-5/20 0G) was 8 µg/mL (≈ 17.4 µM), the MIC ([1]; OligoCF-5/20 +2% G) was 8 µg/mL (≈ 17.4 µM) and the MIC ([1]; OligoCF-5/20 +6% G) was 4 µg/mL (≈ 8.69 µM). The MIC ([1]; OligoCF-5/20 +10% G) was 4 µg/mL (≈ 8.69 µM), the MIC [2, 16] was less than 2 µg/mL and the MIC [2, 17] was less than 2 µg/mL. It also gave an MIC [2, 18] of less than 2 µg/mL, an MIC [2, 19] of less than 2 µg/mL and an MIC (Streptococcus oralis; G-block (OligoCF-5/20) 0%) of less than 0.25 µg/mL. For the same compound, the MIC (Streptococcus oralis; G-block (OligoCF-5/20) 2%) was less than 0.25 µg/mL, the MIC (Streptococcus oralis; G-block (OligoCF-5/20) 6%) was 0.5 µg/mL (≈ 1.09 µM) and the MIC (Streptococcus oralis; G-block (OligoCF-5/20) 10%) was less than 0.25 µg/mL. For the same compound, the MIC ([3]; G-block (OligoCF-5/20) 0%) was 2 µg/mL (≈ 4.34 µM), the MIC ([3]; G-block (OligoCF-5/20) 2%) was 2 µg/mL (≈ 4.34 µM) and the MIC ([3]; G-block (OligoCF-5/20) 6%) was 1 µg/mL (≈ 2.17 µM). It also gave an MIC ([3]; G-block (OligoCF-5/20) 10%) of 0.5 µg/mL (≈ 1.09 µM), an MIC ([4]; Acinetobacter lwoffii, OligoCF-5/20 0G, read-out: MIC) of 0.5 µg/mL (≈ 1.09 µM) and an MIC ([4]; OligoCF-5/20 +2% G) of 0.5 µg/mL (≈ 1.09 µM). For the same compound, the MIC ([4]; OligoCF-5/20 +6% G) was 0.5 µg/mL (≈ 1.09 µM), the MIC ([4]; OligoCF-5/20 +10% G) was 0.25^† μg/ml and the MIC [5, 16] was 0.5 µg/mL (≈ 1.09 µM). It also gave an MIC [5, 17] of 0.5 µg/mL (≈ 1.09 µM), an MIC [5, 18] of 0.5 µg/mL (≈ 1.09 µM) and an MIC [5, 19] of 0.5 µg/mL (≈ 1.09 µM). The MIC [6, 20] was 128 µg/mL (≈ 278 µM), the MIC [6, 21] was 128 µg/mL (≈ 278 µM) and the MIC [6, 22] was 64 µg/mL (≈ 139 µM). It also gave an MIC [6, 23] of 64 µg/mL (≈ 139 µM), an MIC ([7]; G-block (OligoCF-5/20) 0%) of 16 µg/mL (≈ 34.7 µM) and an MIC ([7]; G-block (OligoCF-5/20) 2%) of 16 µg/mL (≈ 34.7 µM). It also gave an MIC ([7]; G-block (OligoCF-5/20) 6%) of 8 µg/mL (≈ 17.4 µM), an MIC ([7]; G-block (OligoCF-5/20) 10%) of 8 µg/mL (≈ 17.4 µM) and an MIC ([8]; Klebsiella pneumoniae (5712, Wales, V12) MDR, G-block (OligoCF-5/20) 0%) of 1 µg/mL (≈ 2.17 µM). The MIC ([8]; Klebsiella pneumoniae (5712, Wales, V12) MDR, G-block (OligoCF-5/20) 2%) was 1 µg/mL (≈ 2.17 µM), the MIC ([8]; Klebsiella pneumoniae (5712, Wales, V12) MDR, G-block (OligoCF-5/20) 6%) was 1 µg/mL (≈ 2.17 µM) and the MIC ([8]; Klebsiella pneumoniae (5712, Wales, V12) MDR, G-block (OligoCF-5/20) 10%) was 1 µg/mL (≈ 2.17 µM). For the same compound, the MIC ([8]; Klebsiella pneumoniae (IR25, India, V6) MDR, G-block (OligoCF-5/20) 0%) was 2 µg/mL (≈ 4.34 µM), the MIC ([8]; Klebsiella pneumoniae (IR25, India, V6) MDR, G-block (OligoCF-5/20) 2%) was 2 µg/mL (≈ 4.34 µM) and the MIC ([8]; Klebsiella pneumoniae (IR25, India, V6) MDR, G-block (OligoCF-5/20) 6%) was 2 µg/mL (≈ 4.34 µM). For the same compound, the MIC ([8]; Klebsiella pneumoniae (IR25, India, V6) MDR, G-block (OligoCF-5/20) 10%) was 2 µg/mL (≈ 4.34 µM), the MIC ([8]; Klebsiella pneumoniae (K3, India, V8) MDR, G-block (OligoCF-5/20) 0%) was 512 µg/mL (≈ 1110 µM) and the MIC ([8]; Klebsiella pneumoniae (K3, India, V8) MDR, G-block (OligoCF-5/20) 2%) was 512 µg/mL (≈ 1110 µM). The MIC ([8]; Klebsiella pneumoniae (K3, India, V8) MDR, G-block (OligoCF-5/20) 6%) was 512 µg/mL (≈ 1110 µM), the MIC ([8]; Klebsiella pneumoniae (K3, India, V8) MDR, G-block (OligoCF-5/20) 10%) was 1020 µg/mL (≈ 2220 µM) and the MIC ([9]; OligoCF-5/20 0G) was 8 µg/mL (≈ 17.4 µM). For the same compound, the MIC ([9]; OligoCF-5/20 +2% G) was 4 µg/mL (≈ 8.69 µM), the MIC ([9]; OligoCF-5/20 +6% G) was 4 µg/mL (≈ 8.69 µM) and the MIC ([9]; OligoCF-5/20 +10% G) was 4 µg/mL (≈ 8.69 µM). It also gave an MIC ([10]; ATCCBAA246|LMG18941, Table 8, G-block (OligoCF-5/20) 0%) of 32 µg/mL (≈ 69.5 µM), an MIC ([10]; ATCCBAA246|LMG18941, Table 8, G-block (OligoCF-5/20) 2%) of 16 µg/mL (≈ 34.7 µM) and an MIC ([10]; ATCCBAA246|LMG18941, Table 8, G-block (OligoCF-5/20) 6%) of 32 µg/mL (≈ 69.5 µM). For the same compound, the MIC ([10]; ATCCBAA246|LMG18941, Table 8, G-block (OligoCF-5/20) 10%) was 32 µg/mL (≈ 69.5 µM), the MIC [11, 16] was 1 µg/mL (≈ 2.17 µM) and the MIC [11, 17] was 0.5 µg/mL (≈ 1.09 µM). It also gave an MIC [11, 18] of 1 µg/mL (≈ 2.17 µM), an MIC [11, 19] of 0.5 µg/mL (≈ 1.09 µM) and an MIC [12, 20] greater than 128 µg/mL. For the same compound, the MIC [12, 21] was greater than 128 µg/mL, the MIC [12, 22] was greater than 128 µg/mL and the MIC [12, 23] was greater than 128 µg/mL. The MIC [13, 16] was 2 µg/mL (≈ 4.34 µM), the MIC [13, 17] was 2 µg/mL (≈ 4.34 µM) and the MIC [13, 18] was 2 µg/mL (≈ 4.34 µM). The MIC [13, 19] was 1 µg/mL (≈ 2.17 µM), the MIC ([14]; Klebsiella pneumoniae, OligoCF-5/20 0G, read-out: MIC) was 1 µg/mL (≈ 2.17 µM) and the MIC ([14]; OligoCF-5/20 +2% G) was 1 µg/mL (≈ 2.17 µM). For the same compound, the MIC ([14]; OligoCF-5/20 +6% G) was 1 µg/mL (≈ 2.17 µM), the MIC ([14]; OligoCF-5/20 +10% G) was 1 µg/mL (≈ 2.17 µM) and the MIC ([15]; OligoCF-5/20 0G) was 8 µg/mL (≈ 17.4 µM). The MIC ([15]; OligoCF-5/20 +2% G) was 4 µg/mL (≈ 8.69 µM), the MIC ([15]; OligoCF-5/20 +6% G) was 4 µg/mL (≈ 8.69 µM) and the MIC ([15]; OligoCF-5/20 +10% G) was 2 µg/mL (≈ 4.34 µM).
